Results as given in the CheMixHub viscosity set.

Test: xn = mol fraction of the nth substance listed

C1CCCCC1 + CCCCCC
Conditions | viscosity [mPa·s]
298.1 K, 101 kPa, x1 = 0.2 | 0.356
298.1 K, 101 kPa, x1 = 0.4 | 0.409
298.1 K, 101 kPa, x1 = 0.5 | 0.442
298.1 K, 101 kPa, x1 = 0.6 | 0.484
298.1 K, 101 kPa, x1 = 0.8 | 0.609
298.15 K, 100 kPa, x1 = 0.201 | 0.34
298.15 K, 100 kPa, x1 = 0.4 | 0.4016
298.15 K, 100 kPa, x1 = 0.6 | 0.4934
298.15 K, 100 kPa, x1 = 0.8 | 0.6328
298.15 K, 101 kPa, x2 = 0.0684 | 0.791
298.15 K, 101 kPa, x2 = 0.1504 | 0.6857
298.15 K, 101 kPa, x2 = 0.212 | 0.6386
298.15 K, 101 kPa, x2 = 0.2942 | 0.5608
298.15 K, 101 kPa, x2 = 0.3691 | 0.5182
298.15 K, 101 kPa, x2 = 0.4469 | 0.4531
298.15 K, 101 kPa, x2 = 0.5365 | 0.4026
298.15 K, 101 kPa, x2 = 0.5903 | 0.3809
298.15 K, 101 kPa, x2 = 0.6702 | 0.3605
298.15 K, 101 kPa, x2 = 0.7634 | 0.3153
298.15 K, 101.33 kPa, x1 = 0.0907 | 0.3272
298.15 K, 101.33 kPa, x1 = 0.0958 | 0.317
298.15 K, 101.33 kPa, x1 = 0.1714 | 0.3405
298.15 K, 101.33 kPa, x1 = 0.1981 | 0.341
298.15 K, 101.33 kPa, x1 = 0.274 | 0.3831
298.15 K, 101.33 kPa, x1 = 0.2742 | 0.367
298.15 K, 101.33 kPa, x1 = 0.2966 | 0.367
298.15 K, 101.33 kPa, x1 = 0.3645 | 0.4001
298.15 K, 101.33 kPa, x1 = 0.3986 | 0.397
298.15 K, 101.33 kPa, x1 = 0.4469 | 0.4276
298.15 K, 101.33 kPa, x1 = 0.4498 | 0.4234
298.15 K, 101.33 kPa, x1 = 0.4972 | 0.436
298.15 K, 101.33 kPa, x1 = 0.533 | 0.4643
298.15 K, 101.33 kPa, x1 = 0.5873 | 0.4846
298.15 K, 101.33 kPa, x1 = 0.5972 | 0.484
298.15 K, 101.33 kPa, x1 = 0.6062 | 0.5023
298.15 K, 101.33 kPa, x1 = 0.6783 | 0.5445
298.15 K, 101.33 kPa, x1 = 0.6988 | 0.544
298.15 K, 101.33 kPa, x1 = 0.752 | 0.5887
298.15 K, 101.33 kPa, x1 = 0.7542 | 0.5997
298.15 K, 101.33 kPa, x1 = 0.7993 | 0.623
298.15 K, 101.33 kPa, x1 = 0.8297 | 0.6872
298.15 K, 101.33 kPa, x1 = 0.8977 | 0.73
298.15 K, 101.33 kPa, x1 = 0.9016 | 0.7533
298.15 K, 101.33 kPa, x1 = 0.9034 | 0.7347
298.15 K, 101.33 kPa, x1 = 0.9721 | 0.8499
303.15 K, 101 kPa, x1 = 0.1086 | 0.2975
303.15 K, 101 kPa, x1 = 0.2169 | 0.3225
303.15 K, 101 kPa, x1 = 0.3006 | 0.3441
303.15 K, 101 kPa, x1 = 0.4057 | 0.3765
303.15 K, 101 kPa, x1 = 0.5025 | 0.4141
303.15 K, 101 kPa, x1 = 0.6021 | 0.4621
303.15 K, 101 kPa, x1 = 0.7058 | 0.5242
303.15 K, 101 kPa, x1 = 0.7982 | 0.5925
303.15 K, 101 kPa, x1 = 0.8984 | 0.6941
303.15 K, 101.33 kPa, x1 = 0.0958 | 0.301
303.15 K, 101.33 kPa, x1 = 0.1981 | 0.324
303.15 K, 101.33 kPa, x1 = 0.2966 | 0.349
303.15 K, 101.33 kPa, x1 = 0.3986 | 0.378
303.15 K, 101.33 kPa, x1 = 0.4972 | 0.412
303.15 K, 101.33 kPa, x1 = 0.5972 | 0.454
303.15 K, 101.33 kPa, x1 = 0.6988 | 0.511
303.15 K, 101.33 kPa, x1 = 0.7993 | 0.58
303.15 K, 101.33 kPa, x1 = 0.8977 | 0.672
308.15 K, 101.33 kPa, x1 = 0.0958 | 0.288
308.15 K, 101.33 kPa, x1 = 0.1981 | 0.307
308.15 K, 101.33 kPa, x1 = 0.2966 | 0.33
308.15 K, 101.33 kPa, x1 = 0.3986 | 0.357
308.15 K, 101.33 kPa, x1 = 0.4972 | 0.389
308.15 K, 101.33 kPa, x1 = 0.5972 | 0.428
308.15 K, 101.33 kPa, x1 = 0.6988 | 0.479
308.15 K, 101.33 kPa, x1 = 0.7993 | 0.543
308.15 K, 101.33 kPa, x1 = 0.8977 | 0.623
323.15 K, 100 kPa, x1 = 0.201 | 0.266
323.15 K, 100 kPa, x1 = 0.4 | 0.309
323.15 K, 100 kPa, x1 = 0.6 | 0.3703
323.15 K, 100 kPa, x1 = 0.8 | 0.4573

CCC(C)=O + CCCCCC
298 K, 101.33 kPa
Conditions | viscosity [mPa·s]
x1 = 0.055 | 0.3018
x1 = 0.2337 | 0.3032
x1 = 0.2985 | 0.3054
x1 = 0.4168 | 0.3122
x1 = 0.5063 | 0.3211
x1 = 0.6043 | 0.3277
x1 = 0.6943 | 0.3371
x1 = 0.8004 | 0.3496
x1 = 0.9053 | 0.3647

CCOC(=O)C(C)Br (configuration not stated) + CCCCCC
303.15 K, 101 kPa
Conditions | viscosity [mPa·s]
x1 = 0.1996 | 0.372
x1 = 0.4039 | 0.5117
x1 = 0.5022 | 0.5973
x1 = 0.5991 | 0.7048
x1 = 0.7961 | 1.012

COC(C)=O + CCCCCC
Conditions | viscosity [mPa·s]
298.15 K, 101 kPa, x1 = 0.0412 | 0.29
298.15 K, 101 kPa, x1 = 0.1497 | 0.289
298.15 K, 101 kPa, x1 = 0.2521 | 0.291
298.15 K, 101 kPa, x1 = 0.3502 | 0.295
298.15 K, 101 kPa, x1 = 0.4406 | 0.3
298.15 K, 101 kPa, x1 = 0.4839 | 0.303
298.15 K, 101 kPa, x1 = 0.5505 | 0.309
298.15 K, 101 kPa, x1 = 0.6499 | 0.32
298.15 K, 101 kPa, x1 = 0.7508 | 0.334
298.15 K, 101 kPa, x1 = 0.8488 | 0.351
298.15 K, 101 kPa, x1 = 0.941 | 0.37
298.15 K, 101.3 kPa, x1 = 0.1056 | 0.2969
298.15 K, 101.3 kPa, x1 = 0.2943 | 0.2941
298.15 K, 101.3 kPa, x1 = 0.4514 | 0.2996
298.15 K, 101.3 kPa, x1 = 0.5616 | 0.3071
298.15 K, 101.3 kPa, x1 = 0.6895 | 0.3189
298.15 K, 101.3 kPa, x1 = 0.7175 | 0.3223
298.15 K, 101.3 kPa, x1 = 0.8224 | 0.342
298.15 K, 101.3 kPa, x1 = 0.9171 | 0.365
303.15 K, 101.3 kPa, x1 = 0.1069 | 0.276
303.15 K, 101.3 kPa, x1 = 0.204 | 0.2755
303.15 K, 101.3 kPa, x1 = 0.306 | 0.2772
303.15 K, 101.3 kPa, x1 = 0.406 | 0.2809
303.15 K, 101.3 kPa, x1 = 0.4998 | 0.2857
303.15 K, 101.3 kPa, x1 = 0.602 | 0.2937
303.15 K, 101.3 kPa, x1 = 0.6984 | 0.3048
303.15 K, 101.3 kPa, x1 = 0.8014 | 0.3165
303.15 K, 101.3 kPa, x1 = 0.8998 | 0.3298
308.15 K, 101 kPa, x1 = 0.0412 | 0.272
308.15 K, 101 kPa, x1 = 0.1497 | 0.271
308.15 K, 101 kPa, x1 = 0.2521 | 0.273
308.15 K, 101 kPa, x1 = 0.3502 | 0.276
308.15 K, 101 kPa, x1 = 0.4406 | 0.28
308.15 K, 101 kPa, x1 = 0.4839 | 0.283
308.15 K, 101 kPa, x1 = 0.5505 | 0.288
308.15 K, 101 kPa, x1 = 0.6499 | 0.297
308.15 K, 101 kPa, x1 = 0.7508 | 0.309
308.15 K, 101 kPa, x1 = 0.8488 | 0.323
308.15 K, 101 kPa, x1 = 0.941 | 0.339

CCC(C)=O + CCCCCCC
298 K, 101.33 kPa
Conditions | viscosity [mPa·s]
x2 = 0.1271 | 0.3686
x2 = 0.2092 | 0.3655
x2 = 0.3055 | 0.3637
x2 = 0.4593 | 0.3646
x2 = 0.5955 | 0.3649
x2 = 0.7044 | 0.3677
x2 = 0.8014 | 0.3721
x2 = 0.9011 | 0.3789
